Where two headings read alike, the source gives them in different places.
Tests used:
[1] = Liver microsome protein binding, human; assay type: in vitro ADME; conditions: liver microsomes, pH 7.4
Experimental: (§3) After incubation for 20 min, a portion of the whole blood was centrifuged at 2500× g for 10 min at 4 °C to separate plasma; another portion of the whole blood was subjected to three cycles of freeze–thawing and ultrasonicated for 10 min to disrupt cells. Equal volumes of plasma and whole blood samples were added to the whole blood and plasma specimens, respectively, followed by protein precipitation with acetonitrile containing an internal standard (IS). […] The RED inserts were placed in the matching incubation plate: 200 µL of drug-containing matrix were added to the sample chamber, and 400 µL of PBS buffer (pH: 7.4) were added to the buffer chamber. After incubation in a constant-temperature shaking incubator for 6 h (37 °C), samples from the sample chamber and buffer chamber were diluted 1:1 with PBS or matrix, respectively, and proteins were precipitated with acetonitrile containing IS.

[2] = Pharmacokinetics of MT, 6-HMT and CBD in SD rats (i.v. and oral); conditions: rat; for half-life / AUC(0-t) / AUC(0-inf) / Cmax / MRT last / Tmax: Sprague-Dawley; for half-life: in vivo, t1/2, rats; for AUC(0-t) / AUC(0-inf) / Cmax / MRT last / Tmax: plasma; for MRT last: MRT(0–t)
Experimental: The drugs were dissolved in the same manner as described previously, with an administration volume of 5 mL/kg for all groups. Blood samples were collected at the time points of pre-administration and 0.033 (only for the intravenous administration group), 0.083, 0.25, 0.5, 0.75, 1, 1.5, 2, 4, 6, 8, and 12 h post-administration.
(§1) The column temperature was set at 40 °C.

[3] = system: CYP1A2-mediated metabolism of MT; test: Static DDI model prediction of CBD's impact on MT exposure, beagle; set-up: species or system beagle dog; conditions: CBD dose 30 mg
Source text: (§2) (AUC when co-administered with the inhibitor) to AUC[contr] (AUC without the inhibitor).

[4] = system: CYP1A2-mediated metabolism of MT; test: Static DDI model prediction of CBD's impact on MT exposure, rat; conditions: CBD dose 5 mg
Source text: as §2

[5] = Pharmacokinetics of MT and CBD in rats after pre-administration of ABT; conditions: p.o. MT + CBD (5 + 20) mg/kg
Experimental: Twelve SD rats were randomly divided into two groups. Both groups were first given an intragastric administration of 1-aminobenzotriazole (ABT) at a dose of 200 mg/kg. […] The administration volume for all groups was 5 mL/kg. […] Approximately 50 μL of venous blood were collected into heparin sodium anticoagulant tubes and placed on ice. The sample processing and storage methods were the same as described previously.
Subsequently, the resultant mixture was vortexed for 1 minute and centrifuged at 4 °C for 10 min at 18,800× g. […] The lowest limit of quantification (LLOQ) was established at 2 ng/mL.
Kromasil 100-5-C8 (2.1 × 50 mm) was selected for the separation of samples. The mobile phase consisted of solvent A (water with 0.1% formic acid and 5 mM ammonium acetate) and solvent B (methanol with 0.1% formic acid). […] The column temperature was set at 40 °C. The two eluents were 0.1% formic acid and 5 mM ammonium acetate in water (A) and 0.1% formic acid in methanol (B). […] The main mass spectrometry detection parameters were: dry gas 10 L/min, heated gas 10 L/min, collision gas 270 kPa, ion source temperature 300 °C, desolvation temperature 250 °C, and heating module temperature 400 °C.
Pharmacokinetic parameters: GraphPad Prism 10.1 software was utilized to draw the curves. Noncompartmental analysis was selected to calculate the major PK parameters, including clearance (CL), volume (V), half-life (t1/2), peak concentration (Cmax), and area under the curve (AUC), using WinNonlin 8.1.

[6] = Pharmacokinetics of MT, 6-HMT and CBD in beagles after oral administration; conditions: beagle
Experimental: Twelve male healthy adult beagles (weighing 10 ± 2 kg) were randomly divided into two groups. […] The drugs were dissolved in a physiological saline solution containing 5% castor oil, with an administration volume of 2 mL/kg. Blood samples were collected at the time points of pre-administration and 0.083, 0.25, 0.5, 0.75, 1, 1.5, 2, 4, 6, 8, and 12 h post-administration.
as §1

[7] = Plasma protein binding (rapid equilibrium dialysis), human; assay type: in vitro ADME; conditions: pH 7.4, human
Experimental: as §3

[8] = Liver microsome protein binding, dog; assay type: in vitro ADME; conditions: beagle, liver microsomes, pH 7.4
Experimental: as §3

PEPT1 = biological target: T1, PEPT1 (Homo sapiens, UniProt P46059); test: Uptake and uptake inhibition in MDCK/hPEPT1 cell model; assay type: cell-based; conditions: MDCK
T1 construct: host or cells: MDCK
T1 sequence (P46059 1-708): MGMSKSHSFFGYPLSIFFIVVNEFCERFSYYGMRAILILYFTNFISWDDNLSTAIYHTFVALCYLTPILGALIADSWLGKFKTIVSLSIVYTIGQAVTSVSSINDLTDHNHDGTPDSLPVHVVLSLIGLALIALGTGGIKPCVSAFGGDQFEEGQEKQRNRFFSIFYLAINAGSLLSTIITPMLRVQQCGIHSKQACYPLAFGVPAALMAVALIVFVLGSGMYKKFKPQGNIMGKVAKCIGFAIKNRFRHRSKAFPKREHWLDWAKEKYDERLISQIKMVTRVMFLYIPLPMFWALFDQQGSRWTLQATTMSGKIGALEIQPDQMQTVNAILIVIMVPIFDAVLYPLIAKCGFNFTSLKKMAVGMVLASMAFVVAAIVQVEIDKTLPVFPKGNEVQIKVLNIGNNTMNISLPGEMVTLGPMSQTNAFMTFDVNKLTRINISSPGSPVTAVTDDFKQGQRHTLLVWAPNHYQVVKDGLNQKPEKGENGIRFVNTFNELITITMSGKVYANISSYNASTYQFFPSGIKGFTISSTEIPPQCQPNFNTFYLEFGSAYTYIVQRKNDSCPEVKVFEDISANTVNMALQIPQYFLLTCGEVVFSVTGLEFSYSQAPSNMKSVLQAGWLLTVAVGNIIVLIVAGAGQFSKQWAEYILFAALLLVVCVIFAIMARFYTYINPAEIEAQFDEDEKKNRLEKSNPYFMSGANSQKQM
Experimental: MDCK-PEPT1 cells were seeded into 24-well plates at a density of approximately 5 × 10^5 cells per well. When the cell confluency reached 60–70%, the culture medium was aspirated, and the cells were rinsed twice with HBSS pre-warmed to 37 °C. […] After incubation at 37 °C for 10 min, the buffer was aspirated, and ice-cold HBSS was immediately added to terminate the reaction, followed by rinsing three times. After drying the residual liquid, 200 μL of pure water were added to each well, and the cells were lysed by repeated freezing–thawing in liquid nitrogen three times. The cell lysates were collected, and the protein content was determined by the BCA method.
Cell uptake assessment: The concentration of the analyte in cells was corrected using the protein concentration of the cell lysate in each well.(4) Conclysate=Concdrug/ConcProtein
The uptake rate (U, pmol/mg/min) of the compound was calculated following Formula (5).(5) U=Clysate/P×t where Clysate is the amount of drug in the cell lysate (ng); P is cellular protein content (mg); t is incubation time (min).
The uptake ratio of the compound was calculated following Formula (6)(6) UR=U/ UMOCK where UMOCK is the uptake rate in MOCK-MDCK cells (pmol/mg/min).
The inhibition ratio was calculated following Formula (7)(7) IR=(1−Uwith inhibitor−Umock with inhibitor/Uwithout inhibitor−Umock without inhibitor)×100%

[9] = Brain tissue protein binding, rat; assay type: in vitro ADME; conditions: pH 7.4
Experimental: as §3

[10] = Liver microsome protein binding, rat; assay type: in vitro ADME; conditions: liver microsomes, pH 7.4
[11] = Plasma protein binding (rapid equilibrium dialysis), dog; conditions: beagle
Experimental: as §3

[12] = Plasma protein binding (rapid equilibrium dialysis), mouse; assay type: in vitro ADME; conditions: pH 7.4
Experimental: as §3

[13] = Plasma protein binding (rapid equilibrium dialysis), rat; assay type: in vitro ADME
Experimental: as §3

[14] = po, 20 mg/kg, rats, p.o., MT + CBD (20 + 20) mg/kg
[15] = po, 20 mg/kg, rats, p.o., Vehicle + CBD 20 mg/kg
[16] = male, po, 20 mg/kg, rats, p.o., MT + CBD (5 + 20) mg/kg

## C=C(C)[C@@H]1CCC(C)=C[C@H]1c1c(O)cc(CCCCC)cc1O [CBD, Cannabidiol]
[1]
  fraction unbound at 6 h: 0.0073
[2]; po, 20 mg/kg, p.o., MT + CBD (20 + 20) mg/kg
  half-life: 2.67 h
[2]; po, 20 mg/kg, p.o., Vehicle + CBD 20 mg/kg
  half-life: 3.55 h
[2]; [14]
  AUC(0-t): 1390 ng·h/mL
  AUC(0-inf): 1410 ng·h/mL
  Cmax: 519 ng/mL
  MRT last: 2.71 h
  Tmax: 1.21 h
[2]; [15]
  AUC(0-t): 1570 ng·h/mL
  AUC(0-inf): 1590 ng·h/mL
  Cmax: 704 ng/mL
  MRT last: 3.11 h
  Tmax: 0.92 h
[2]; male, po, 20 mg/kg, p.o., MT + CBD (5 + 20) mg/kg
  half-life: 4.14 h
[2]; male, oral, parameter of CBD for static DDI model
  Cmax: 1620 nM
[2]; [16]
  AUC(0-t): 1590 ng·h/mL
  AUC(0-inf): 1610 ng·h/mL
  Cmax: 510 ng/mL
  MRT last: 3.85 h
  Tmax: 1.5 h
[2]; calculated as 0.693/(tmax/5)
  Ka (oral absorption rate): 2.31
[3]
  [I]h (estimated free concentration in liver): 1.37 nM
[4]
  [I]h (estimated free concentration in liver): 0.74 nM
[5]
  AUC(0–t) of CBD in ABT-model rats relative to control group: approximately 1.68 fold
[6]; calculated as 0.693/(tmax/5)
  Ka (oral absorption rate): 3.77
[6]; male, dog, plasma, oral
  Cmax: 1310 nM
[7]; read-out: Plasma Protein Binding (converted)
  fraction unbound at 6 h: 0.001
[7]; read-out: fu, p (free fraction in plasma)
  fraction unbound at 6 h: 0.0001
[8]
  fraction unbound at 6 h: 0.0018
PEPT1; 500 μM CBD, 100 μM MT, 4 °C, read-out: uptake inhibition rate of MT
  inhibition at 500 µM: 2.7%
PEPT1; 500 μM CBD, 100 μM MT, 37 °C, read-out: uptake inhibition rate of MT
  inhibition at 500 µM: 79.6%
PEPT1; pH 6.3, 500 μM CBD, 100 μM Gly, pH 6.3, 37 °C, read-out: inhibition rate on the uptake of Gly via PEPT1
  inhibition at 500 µM: 46.7%
PEPT1; pH 6.3, 500 μM CBD, 100 μM UBEN, pH 6.3, 37 °C, read-out: inhibition rate on the uptake of UBEN via PEPT1
  inhibition at 500 µM: 55.8%
[9]
  fraction unbound at 6 h: 0.0006
[10]
  fraction unbound at 6 h: 0.0055
[11]
  fu, p (free fraction in plasma): 0.33%
[11]; dog, plasma, pH 7.4
  fraction unbound at 6 h: 0.0033
[12]
  fraction unbound at 6 h: 0.0029
[13]
  fu, p (free fraction in plasma): 0.25%
[13]; plasma, pH 7.4
  fraction unbound at 6 h: 0.0025

— article PMC12845078 (Pharmaceuticals, 2025)
